# Key:
# C. violaceum CV026 [1] = assay: Measurement of IC50 of compounds having an inhibitory effect on C. violaceum quorum sensing (purple pigment absorbance at 585 nm); assay type: cell-based; details: Chromobacterium violaceum, read-out: IC50 of compounds having bacterial quorum sensing inhibitory activity
# Method: 2.1 The wells of a 12-well plate were marked as initial concentration, 2, 4, 8, 16, 32, 64, 128, 256, DMSO group, and a blank control group from left to right and from up to bottom, respectively.
# 2.2 The monoclonal C. violaceum CV026 grew on LB solid plate was cultured to exponational phase in a 5 ml fresh LB liquid culture medium, 50 μl was then taken for seeding in a 5 ml LB culture medium, and was cultured until the optical density OD value was about 1.0 at 585 nm; the culture was then mixed well with LB culture medium at a ratio of 1:9 by volume (with OD of about 0.15), and was added to a 12-well plate in an amount of 2 ml/well.
# 2.3 The compounds preliminarily screened to have quorum sensing inhibitory activity were dissolved respectively in DMSO (at a concentration of 0.065M), and then 10 μl was taken into 10 μl DMSO solution to achieve the purpose of 2-fold dilution, and so on. Each compound was gradiently diluted to a highest fold of 256 (gradient dilution of 2, 4, 8, 16, 32, 64, 128, 256 fold).
# 2.4 To each well, 15 μl 1000-fold diluted inducer C6—HSL (initial concentration of 0.125M) and 8 μl compound solution at each diluted gradient was added; to DMSO control group, 8 μl DMSO was added; to a blank control group, 8 μl LB culture medium was added. Finally, it was ensured that 2 ml culture in each of the 12-well plate was mixed well.
# 2.5 The 12-well plate was placed in a 30° C. shaker at 130 rpm and was cultured for 10-12 h.
# 2.6 After the culture was finished, 1 ml culture was taken from each well and was put in a 1.5 ml EP tube and then was centrifugated at 12000 rpm for 10 mins. The supernatant of the culture was sucked out, and 500 μl DMSO was added to each EP tube to dissolve the purple pigment in the culture. After the pigment was completely dissolved, centrifugation was performed at 12000 rpm for 10 mins. 200 μl supernatant pigment was put in a 96-well culture plate, and was measured for absorbance value at 585 nm by a Microplate Reader, […] the absorbance value and the corresponding concentration were plotted to get the IC50 value.
# C. violaceum CV026 [2] = assay: Preliminary screening of bacterial quorum sensing agonistic / inhibitory activity on LB plate (purple stain / white circle); assay type: cell-based; details: for Regulatory activity (bacterial quorum sensing): 1 μl of 0.065M compound spotted on LB plate with C. violaceum CV026, without (agonistic) or with inducer C6-HSL (inhibitory), 30° C., 16-18 h
# Method: 1.1 Preparation work: different compounds to be tested (Compounds 1-29 prepared in Example 1-29 and intermediates 1-3) were weighted and then were dissolved in 200 μl DMSO (dimethyl sulfoxide) to prepare a solution at a concentration of 0.065M. 5.0 mg inducer, N-hexanoyl homoserine lactone (C6-HSL, purchased from Sigma Company), was weighted and was dissolved in 200 μl DMSO (at a concentration of 0.125M), and the compounds and the inducer were stored at 4[…] for further use. C. violaceum CV026 (donated by Professor McLean J C from Texas State University) in LB culture medium (LB culture medium consisting of 1% (percentage by mass) tryptone, 0.5% (percentage by mass) yeast extract, 1% (percentage by mass) NaCl and water) was cultured under shaking in a shaker at 30 °C, 200 rpm to get the culture medium for further use.
# 1.2 Method for preliminary screening of compounds having agonistic activity: 400 μl C. violaceum CV026 (at a bacterial concentration of 1×10^8/ml) was added to 5 ml melted semi-solid LB culture medium, and was mixed well; the mixed culture medium was poured into a solid LB plate; when the mixed culture medium was solidified on the plate, lattice was made thereon; 1 μl of the dissolved compounds to be tested (Compounds 1-29 in Examples 1-29, at a concentration of 0.065M) was spotted on the plate; when the compounds on the plate was dried in air, the plate was put in a 30° C. oven upside down and was cultured for a period of 16-18 h. If the compound to be tested has an agonistic effect on C. violaceum CV026 on the LB plate, purple stain will be induced on the LB plate. The agonistic activity of a compound is determined depending on whether purple stain is induced for C. violaceum CV026 on LB plate as well as the purple depth.
# 1.3 Method for preliminary screening of compounds having inhibitory activity: the inducer C6—HSL was diluted gradiently to 1000 times by means of 2-fold dilution; 15 μl diluted inducer and 400 μl C. violaceum CV026 in exponential phase (at a bacterial concentration of 1×10^8/ml) were mixed well and then were added to a 5 ml melted semi-solid LB culture medium; the mixture of inducer, C. violaceum, and semi-solid LB was poured onto a solid LB plate; when the mixture was solidified on the plate, lattice was made thereon; 1 μl of the dissolved compounds to be tested (Compounds 1-29 prepared in Example 1-29 and intermediates 1-3, at a concentration of 0.065M) was spotted on the plate; when the compounds on the plate were dried in air, the plate was put in a 30° C. oven upside down and was cultured for a period of 16-18 h. […] The inhibitory activity of a compound is preliminary determined depending on the size of the white circle appeared after C. violaceum CV026 was inhibited on LB plate.
Structure (SMILES),IC50 (C. violaceum CV026 [1]) [µM],Regulatory activity (bacterial quorum sensing) (C. violaceum CV026 [2]),melting point [°C],inhibitory or agonizing effect on bacterial quorum sensing (in words) (C. violaceum CV026 [2])
"O=C(Nc1ccc(S(=O)(=O)N[C@H]2CCOC2=O)cc1)c1ccccc1F [Compound 24, (S)-2-fluoro-N-(4-(N-(2-oxotetrahydrofuran-3-yl)sulfamoyl)phenyl)benzamide]",1.64 ± 0.27,−,,
"O=C(Nc1ccc(S(=O)(=O)N[C@H]2CCOC2=O)cc1)c1cccc(Cl)c1 [Compound 22, (S)-3-chloro-N-(4-(N-(2-oxotetrahydrofuran-3-yl)sulfamoyl)phenyl)benzamide]",,−,213 to 214,
"O=C(Nc1ccc(S(=O)(=O)N[C@H]2CCOC2=O)cc1)c1ccccc1 [Compound 9, (S)-N-(4-(N-(2-oxotetrahydrofuran-3-yl)sulfamoyl)phenyl)benzamide]",17.2 ± 2.6,−,,
"CC(C)(C)c1ccc(C(=O)Nc2ccc(S(=O)(=O)N[C@H]3CCOC3=O)cc2)cc1 [Compound 16, (S)-4-(tert-butyl)-N-(4-(N-(2-oxotetrahydrofuran-3-yl)sulfamoyl)phenyl)benzamide]",,−,207 to 208,
"CCCCC(=O)Nc1ccc(S(=O)(=O)N[C@H]2CCOC2=O)cc1 [Compound 3, (S)-N-(4-(N-(2-oxotetrahydrofuran-3-yl)sulfamoyl)phenyl)pentanamide]",,−,174 to 176,
O=C(Nc1ccc(S(=O)(=O)N[C@H]2CCOC2=O)cc1)c1ccc([N+](=O)[O-])cc1,,,257 to 258,
"CCC(=O)Nc1ccc(S(=O)(=O)N[C@H]2CCOC2=O)cc1 [Compound 1, (S)-N-(4-(N-(2-oxotetrahydrofuran-3-yl)sulfamoyl)phenyl) propanamide]",,−,179 to 181,
"O=C(Nc1ccc(S(=O)(=O)N[C@H]2CCOC2=O)cc1)c1cccc(F)c1 [Compound 23, (S)-3-fluoro-N-(4-(N-(2-oxotetrahydrofuran-3-yl)sulfamoyl)phenyl)benzamide]",7.79 ± 2.68,−,,
"Br.NC1CCOC1=O (stereo not drawn) [Intermediate 1, (L)-homoserine lactone hydrobromide]",,+,,
"O=C(Nc1ccc(S(=O)(=O)N[C@H]2CCOC2=O)cc1)c1ccc(Cl)cc1 [Compound 14, (S)-4-chloro-N-(4-(N-(2-oxotetrahydrofuran-3-yl)sulfamoyl)phenyl)benzamide]",,−,,
"O=C(Nc1ccc(S(=O)(=O)N[C@H]2CCOC2=O)cc1)c1ccccc1Cl [Compound 28, (S)-2-chloro-N-(4-(N-(2-oxotetrahydrofuran-3-yl)sulfamoyl)phenyl)benzamide]",1.66 ± 0.33,−,,
"Cc1cccc(C(=O)Nc2ccc(S(=O)(=O)N[C@H]3CCOC3=O)cc2)c1 [Compound 20, (S)-3-methyl-N-(4-(N-(2-oxotetrahydrofuran-3-yl)sulfamoyl)phenyl)benzamide]",,−,193 to 194,
"CCCCCC(=O)Nc1ccc(S(=O)(=O)N[C@H]2CCOC2=O)cc1 [Compound 4, (S)-N-(4-(N-(2-oxotetrahydrofuran-3-yl)sulfamoyl)phenyl)hexanamide]",29 ± 2.41,−,142 to 143,
O=C(Cc1ccccc1)Nc1ccc(S(=O)(=O)N[C@H]2CCOC2=O)cc1,,,157 to 158,
CCCCCCCCC(=O)Nc1ccc(S(=O)(=O)N[C@H]2CCOC2=O)cc1,,,150 to 152,
N#Cc1ccc(C(=O)Nc2ccc(S(=O)(=O)N[C@H]3CCOC3=O)cc2)cc1,,,230 to 231,
"CCCCCCCC(=O)Nc1ccc(S(=O)(=O)N[C@H]2CCOC2=O)cc1 [Compound 6, (S)-N-(4-(N-(2-oxotetrahydrofuran-3-yl)sulfamoyl)phenyl)octanamide]",,−,146 to 148,
"CCCC(=O)Nc1ccc(S(=O)(=O)N[C@H]2CCOC2=O)cc1 [Compound 2, (S)-N-(4-(N-(2-oxotetrahydrofuran-3-yl)sulfamoyl)phenyl)butyrylamide]",,−,180 to 182,
"CC(=O)Nc1ccc(S(=O)(=O)N[C@H]2CCOC2=O)cc1 [Intermediate 2, (S)-N-(4-(N-(2-oxotetrahydrofuran-3-yl)sulfamoyl)phenyl)acetamide]",,−,,
CCCc1ccc(C(=O)Nc2ccc(S(=O)(=O)N[C@H]3CCOC3=O)cc2)cc1,,,247 to 249,
"O=C(Nc1ccc(S(=O)(=O)N[C@H]2CCOC2=O)cc1)c1ccc(F)cc1 [Compound 17, (S)-4-fluoro-N-(4-(N-(2-oxotetrahydrofuran-3-yl)sulfamoyl)phenyl)benzamide]",14.7 ± 2.58,−,236 to 237,
"O=C(Nc1ccc(S(=O)(=O)N[C@H]2CCOC2=O)cc1)c1ccccc1C(F)(F)F [Compound 27, (S)-2-trifluoromethyl-N-(4-(N-(2-oxotetrahydrofuran-3-yl)sulfamoyl)phenyl)benzamide]",4.91 ± 0.97,−,186 to 187,
"O=C(Nc1ccc(S(=O)(=O)N[C@H]2CCOC2=O)cc1)c1ccc(CCl)cc1 [Compound 15, (S)-4-(chloromethyl)-N-(4-(N-(2-oxotetrahydrofuran-3-yl)sulfamoyl)phenyl)benzamide]",,+,251 to 253,agonizing effect
"CCCCCCC(=O)Nc1ccc(S(=O)(=O)N[C@H]2CCOC2=O)cc1 [Compound 5, (S)-N-(4-(N-(2-oxotetrahydrofuran-3-yl)sulfamoyl)phenyl)heptamide]",,−,143 to 144,
CCOc1ccc(C(=O)Nc2ccc(S(=O)(=O)N[C@H]3CCOC3=O)cc2)cc1,,,256 to 258,
"O=C(Nc1ccc(S(=O)(=O)N[C@H]2CCOC2=O)cc1)c1ccc(Br)cc1 [Compound 12, (S)-4-bromo-N-(4-(N-(2-oxotetrahydrofuran-3-yl)sulfamoyl)phenyl)benzamide]",,±,112 to 113,both an agonizing effect and an inhibitory effect
